Measured values from a melting point compilation (Tetko et al.; mined from patent text by program, amines drawn as free bases though some values may be those of a salt).
Residues, ends and D or L forms follow the SMILES beside them. *: point of attachment. Cbz = O=C(OCc1ccccc1)*; NHPr = CCCN*

Row | SMILES | melting point [°C]
1 | C=CCNC(=O)O[C@H]1C[C@@H](C(=O)OC)[C@]2(C)CC[C@H]3C(=O)O[C@H](c4ccoc4)C[C@]3(C)[C@H]2C1=O | 196 to 199
2 | CC12CCC3c4ccc(O)cc4CCC3C1CCC2=CCl (configuration not stated) | 130 to 133
3 | NS(=O)(=O)c1ccc(S(=O)(=O)CCCO)c([N+](=O)[O-])c1 | 168 to 170
4 | CCc1nc2c(N)nc3ccccc3c2n1CCC1(O)CC1 | 199 to 200
5 | CCOC(=O)c1cn(Cc2ccccc2)nc1OCc1ccc(OCc2nc(-c3ccco3)oc2C)c(O)c1 | 134 to 135
6 | CC1=CC2(C=CC1(C)C(Cl)(Cl)Cl)SCC(C(C)(C)C)CS2 (configuration not stated) | 141 to 143
7 | O=C(CCl)c1scc(Br)c1Br | 86 to 88
8 | Cc1ccc2c3c(ccc2n1)OCC(CN1CC=C(c2c[nH]c4c(F)cccc24)CC1)O3 (configuration not stated) | 205 to 210
9 | OC1CCN(c2ccccc2)C12CCNCC2 (racemic) | 141 to 144
10 | CC1(C)Oc2ccncc2[C@@H](Oc2ccccn2)[C@@H]1O (relative stereo) | 207
11 | COc1ccc(C(=O)c2c(-c3ccc(OC)cc3)sc3ccccc23)cc1 | 124 to 126
12 | CC(=O)Nc1cc(F)ccc1S(=O)(=O)CC#N | 131 to 132
13 | COc1cc(Nc2nccc(-c3ccc([N+](=O)[O-])cc3)n2)cc(OC)c1OC | 196
14 | C=CCn1c(=O)c(C(=O)OCC)c(O)c2cnc(-c3ccccc3)nc21 | 174 to 175
15 | CC1Cc2ccccc2CN(CCC(N)=O)C1=O (configuration not stated) | 168 to 169
16 | CCc1c(OC)nc2nc(-c3nnc(C(F)(F)F)o3)cn2c1C | 210 to 211
17 | CCCC1(CC(=O)O)OCCc2c1[nH]c1c(F)ccc(C(=O)N3CCOCC3)c21 (configuration not stated) | 98 to 100
18 | CCCCCCCCCCCCCCCCOc1cccc(O)c1 | 58 to 59
19 | CCCCNC(=O)[C@@H]1CCCN1C(=O)OCc1ccccc1 | 88 to 90
20 | CCCCOC(=O)N1C(=O)[C@H](O)[C@@H]1c1ccccc1 | 88 to 89
21 | Cc1c(Br)cccc1N1CCn2c(cc3c2CCCC3)C1=O | 163 to 165
22 | CCn1ncc2c3onc(-c4cccc(F)c4)c3cnc21 | 136 to 137
23 | COc1ccc(-c2ccnc3c(C(=O)c4cccs4)cnn23)cc1NC(=O)NC(C)C | 202 to 204
24 | Cc1cnc(Oc2cccc(C(F)(F)F)c2)c(C(=O)O)c1 | 173 to 175

Row | SMILES | melting point [°C]
25 | CCCNC(=O)C1CCCN1C(=O)C(C)NC(=O)OCc1ccccc1 (stereo not drawn) (Cbz-Ala-Pro-NHPr; configuration not given here) | 117 to 120
26 | O=C(COc1ccccc1)NC(Cc1ccccc1)C(=O)NNc1ccccc1 (configuration not stated) | 172 to 175
27 | CCOC(=O)c1cnc2c(SCc3ccccc3)cccn2c1=O | 165 to 167
28 | CCOCc1nc2c(N)nc3cc(-c4ccc(F)nc4)cnc3c2n1CC(C)(C)O | 218 to 220
29 | O=C(O)C(c1ccccc1)N1C(=O)c2cc(Cl)c(Cl)cc2C1=O (configuration not stated) | 228 to 232
30 | COc1ccc(C)cc1NC(=O)Nc1ccc(N2CCN(C(=O)Nc3ncccc3C(=O)O)CC2)cc1 | 165 to 168
31 | CN(C)C1(c2ccccc2)CCC(CNCCc2c[nH]c3ccccc23)CC1 (configuration not stated) | 78 to 83
32 | CC(C)C(=O)Nc1c(Cl)cccc1C(=O)Nc1ccc(OC(F)(F)F)cc1 | 230 to 233
33 | N#Cc1c(-c2ccccc2)[nH]c(=O)c2cccnc12 | 292 to 295
34 | Cc1ccc(-c2c(C#N)nn(-c3c(Cl)cc(C(F)(F)F)cc3Cl)c2N)cc1 | 243 to 244
35 | CS(=O)(=O)c1ccc(-c2cnn(-c3ccc(F)c(F)c3)c(=O)c2-c2cccs2)cc1 | 189 to 191
36 | COc1ccc(-c2cccc3c2C(=O)OC(C)(C)O3)cn1 | 160
37 | COc1ccc2c(c1)C(CC(=O)O)=C(C)C2=Cc1ccc(SC)cc1 | 195 to 196
38 | c1cc(Nc2nccc3ccccc23)cc(-n2ccnc2)c1 | 164 to 167
39 | Cc1c(F)c(Oc2ccc(F)c(F)c2)nc(Oc2cc(C(F)(F)F)nn2C)c1F | 93
40 | COC(=O)c1c(S(=O)(=O)NC(=O)Nc2nc(C)nc(OC)n2)c(C)nn1C | 195 to 198
41 | C=C[C@@H]1CCC(=O)N1C(=O)[C@@H](C)Sc1cc(C(C)(C)C)c(O)c(C(C)(C)C)c1 | 105 to 106
42 | COc1cc(COc2nn(-c3ccccc3)cc2/C=C/c2coc(C(C)(C)C)n2)ccc1OCc1nc(-c2ccc(CC(=O)O)cc2)oc1C | 104 to 106
43 | COC(=O)c1sc(Cl)nc1-c1ccccc1 | 55 to 57
44 | CCn1nc(C(F)(F)F)c(CS(=O)(=O)C2=NOC(C)(CCl)C2)c1Cl (configuration not stated) | 123 to 124
45 | O=Cc1c(-c2cccc(C(F)(F)F)c2)sc2ccccc12 | 103 to 104
46 | Cc1nc(-c2ccccc2)ncc1CN1CCN(c2ccc(O)cc2)CC1 | 201 to 202
47 | COCc1cn2c(C)c(C)nc2c2c1C(=O)[C@H](O)[C@@H](c1ccccc1)N2 | 206 to 208
48 | CC(C)c1ccc(NCc2ccc(Br)cc2)cc1 | 30

Results, then the compound that gave them:

Row | melting point [°C] | SMILES
49 | 220 to 221 | NC(=O)c1ncn2c1CN(C(=O)N1CCOCC1)c1ccccc1-2
50 | 65.5 | Cc1ccc([N+](=O)[O-])cc1C=Cc1ccccc1
51 | 178 to 180 | CC(=O)Nc1ccc(F)c(N2CCN(C(C)=O)CC2)n1
52 | 110 to 112 | Cc1cc(=O)n2cccc(OCc3ccccc3)c2n1
53 | 100 to 101 | CCCCCCCNC(=O)N(C)c1cccc(-c2ccc(CCC(=O)O)cc2OC)c1
54 | 248 to 249 | Cc1cc2nc(C(=O)NC(Cc3ccc(OCc4ccccc4)cc3)C(=O)O)cn2cc1-c1ccc(Cl)cc1 (configuration not stated)
55 | 195 to 198 | Cc1cc2cc(NS(C)(=O)=O)cc(-c3cc(Cl)nc4ccccc34)c2n1CC(=O)O
56 | 110 to 111 | COc1ccc(-c2cc(=S)ss2)cc1
57 | 123 to 125 | CC(=O)N[C@@H](CSC(=O)[C@@H](C)c1ccc(CC(C)C)cc1)C(=O)O
58 | 127 to 128 | Cc1c(-c2cccn2C)c(N2CC[C@H](N(C)C)C2)c2oc(C3CC3)nc2c1C#N
59 | 215 to 217 | CNC(=O)c1ccc(C(=O)O)cc1N
60 | 162 | Cc1c(CC(=O)O)c2cc(C(=O)C(C)C)cc3c2n1CCC3
61 | 125 to 126 | Cc1cnnc2c1C(=O)CC(c1ccsc1)C2 (configuration not stated)
62 | 64 | Cc1c(CCCCCCCCC(=O)O)cccc1C(=O)c1ccc(Cl)cc1
63 | 150 to 152 | Cc1nc(-c2ccccc2)cc(-c2cccc(C#N)c2)c1NC(=O)CCN1CCOCC1
64 | 175 to 178 | O=C(Nc1ccc(N2CCCCC2)cc1)N(C[C@H]1CC[C@H](CN(C(=O)Nc2ccc(N3CCCCC3)cc2)C2CCCCCC2)CC1)C1CCCCCC1
65 | > 265 | CCOCc1nc2c(N)nc3cc(O)ccc3c2n1CC(C)C
66 | 227 to 228 | Nc1c([N+](=O)[O-])cnc2sccc12
67 | 99 to 102 | O=C(CCC1CCCCCCCCCCC1)C1=C(O)COC1=O
68 | 99.5 | Cc1cc(-c2noc(C)c2-c2ccc(S(C)(=O)=O)c(F)c2)ccc1-c1cscn1
69 | 217 | CC1(C)CC(O)=CC2(C1)NCC(c1cccc(O)c1)O2 (configuration not stated)
70 | 189 to 191 | Cc1ccc(-c2c(CC(=O)O)c(C3CCCCC3)nn2-c2ccccc2)cc1
71 | > 250 | O=c1ccc(-c2ccncn2)c[nH]1
72 | 165 to 168 | CNC(=S)NS(=O)(=O)c1cc(CCNC(=O)c2cc(C(C)(C)C)ccc2OC)ccc1OC
73 | 71 | COC(=O)CC=CC=Cc1ccccc1

Row | melting point [°C] | SMILES
74 | 182 to 184 | c1cc(CN2CCOCC2)cc(-n2cnc3cc(-c4ccoc4)cnc32)c1
75 | > 200 | O=[N+]([O-])c1c(N2CCc3ccccc3CC2)nc2c(c1O)CCCCC2
76 | 96 | CCOC(=O)C1=CC(=O)C2(C(=O)c3ccc(OC)cc3)OC2O1 (configuration not stated)
77 | 169 to 170 | O=C(NC(Cc1c[nH]c2ccccc12)C(=O)Oc1c(F)c(F)c(F)c(F)c1F)OCc1ccccc1 (configuration not stated)
78 | 187 | COc1ccc(-c2ccc(N)nn2)cc1OCC(C)C
79 | > 250 | O=c1ccc(-c2ccc(-c3ccc(=O)[nH]n3)cc2)n[nH]1
80 | 125 | O=C(O)C1=C2OCOc3cccc1c32
81 | 79 to 81 | CC(C)Oc1cc(-n2c(=O)c(F)c(CF)n(C)c2=O)c(F)cc1Cl
82 | 188 to 191 | CC(C)N1CCC(COc2ccc(-c3ccc(=O)[nH]n3)cn2)CC1
83 | 103 to 104 | CCCCCCCCCCCCOC(=O)c1ccc2cc(O)ccc2c1
84 | 66 to 69 | CC[C@H](C)[C@H](NC(=O)N(C)Cc1ccccn1)C(=O)N[C@@H](Cc1ccccc1)[C@@H](O)C[C@H](Cc1ccccc1)NC(=O)OCc1cncs1
85 | 126 to 128 | O=C(NCc1ccc(F)cc1)N1CCC(Oc2ccc(CCNC[C@H](O)COc3ccc(O)cc3)cc2)CC1
86 | 215 to 216 | CCOC(=O)c1c(-c2ccccc2C)c2cc(Cl)ccc2[nH]c1=O
87 | 156 to 157 | O=[N+]([O-])c1ccc(-c2nc3cc(OCc4ccccc4)ccc3s2)c(Cl)c1
88 | 93 to 95 | CCn1c(=N)c(-c2cc(OC)cc(OC)c2)cc2cnc(SC)nc21
89 | 154 to 155 | CCC1(C)OC(c2ccc(S(N)(=O)=O)cc2)=C(c2ccc(C(C)=O)cc2)C1=O (configuration not stated)
90 | 231 to 232 | O=C(Nc1cccnc1)N1CCN(c2nccc(-c3cc(F)cc(F)c3)n2)CC1
91 | 146 to 147 | COCCOCc1c(CN(C)C[C@@H](O)c2ccco2)sc2c(=O)c(C(=O)NCc3ccc(Cl)cc3)cn(C)c12
92 | 175 to 176 | CN(C)CC(=O)Nc1c(C(=O)c2ccccc2)[nH]c2cc(Cl)ccc12
93 | 135 to 137 | CCCCCCCC(=O)Nc1cc(Cc2c(Cl)cccc2Cl)nc(Nc2ccc(C#N)cc2)n1
94 | 160 to 163 | ON(Cc1ccccc1)Cc1ccc(CN(O)Cc2ccccc2)cc1
95 | 167 | COc1cccc(C(=O)Nc2nc(C(=O)c3ccc([N+](=O)[O-])c(OC)c3)n3ccccc23)c1
96 | 120 | CC(=O)N(C=CC(=Nc1ccccc1)Oc1ccccc1)c1ccccc1
97 | 106 | CCCNS(=O)(=O)c1cc(C(=O)CCC(=O)O)ccc1Cl
